In ChEMBL document CHEMBL5338791, “Discovery of Novel 1,3-Diphenylpyrazine Derivatives as Potent S-Phase Kinase-Associated Protein 2 (Skp2) Inhibitors for the Treatment of Cancer” (J Med Chem, 2023):
Values after ≈ are worked out from the molar mass of the structure shown. Active and inactive are the calls of the source. The calls are words filed in the database; no cut-off is given here.

Assays:
[1] = system: MGC-803; experiment: Induction of cell cycle arrest in human MGC-803 cells assessed as accumulation of cells at G1 phase at 10 uM incubated for 6 hrs by flow cytometry (reference value: 57.09 %); type: functional
[2] = Half life in plasma of NOD-SCID mouse model xenografted with human PC-3 cells at 25 mg/kg, IG measured upto 48 hrs by LC-MS/MS analysis; type: ADME, organism-based; conditions: po
[3] = system: MGC-803; experiment: Antitumor activity against human MGC-803 cells xenografted in NOD-SCID mouse model assessed as downregulation of Skp2 expression at 10 to 50 mg/kg, IG administered once every 2 days for 21 days by Western blot analysis; type: functional, organism-based; conditions: dose 10-50 mg/kg, time 21.0 day
[4] = Apparent volume of distribution in tumor of NOD-SCID mouse model xenografted with human PC-3 cells at 25 mg/kg, IG measured upto 48 hrs by LC-MS/MS analysis; type: ADME, organism-based, Neoplasm; conditions: in vivo, po
[5] = system: MGC-803; experiment: Upregulation of p21 level in human MGC-803 cells upto 10 uM by Western blot analysis; type: functional, cell-based; conditions: time 48.0 hrs, TDE = time-dependent effect
[6] = system: PC-3; experiment: Induction of cell cycle arrest in human PC-3 cells assessed as accumulation of cells at S phase at 10 uM incubated for 48 hrs by flow cytometry (reference value: 22.44 %); type: functional
[7] = system: PC-3; experiment: Inhibition of cell migration in human PC-3 cells incubated for 48 hrs by wound healing assay; type: functional, cell-based; conditions: dose <= 2.0 µM
[8] = Clearance in plasma of NOD-SCID mouse model xenografted with human PC-3 cells at 25 mg/kg, IG measured upto 48 hrs by LC-MS/MS analysis; type: ADME, organism-based; conditions: po
[9] = system: PC-3; experiment: Induction of apoptosis in human PC-3 cells assessed as necrotic cells at 10 uM incubated for 48 hrs by annexin V-FITC/PI staining based flow cytometry (reference value: 0.14 %); type: functional
[10] = Half life in tumor of NOD-SCID mouse model xenografted with human PC-3 cells at 25 mg/kg, IG measured upto 48 hrs by LC-MS/MS analysis; type: ADME, organism-based, Neoplasm; conditions: po
[11] = system: MGC-803; experiment: Induction of cell cycle arrest in human MGC-803 cells assessed as accumulation of cells at S phase at 10 uM incubated for 48 hrs by flow cytometry (reference value: 22.72 %); type: functional
[12] = Toxicity in NOD-SCID mouse model xenografted with human PC-3 cells assessed as change in liver histology at 10 to 50 mg/kg, IG administered once every 2 days for 21 days by H and E staining based analysis; type: organism-based; conditions: in vivo, po, 504 h, dose 10-50 mg/kg, time 21 day
[13] = system: PC-3; experiment: Antitumor activity against human PC-3 cells xenografted in NOD-SCID mouse model assessed as p27 accumulation at 10 to 50 mg/kg, IG administered once every 2 days for 21 days by Western blot analysis; type: functional, organism-based; conditions: dose 10-50 mg/kg, time 21.0 day
[14] = system: PC-9; experiment: Antitumor activity against human PC-9 cells overexpressing Skp2 assessed as cell growth inhibition incubated for 72 hrs by MTT assay; type: functional, cell-based; conditions: PC-9, 72 h
[15] = Cmax in plasma of NOD-SCID mouse model xenografted with human PC-3 cells at 25 mg/kg, IG measured upto 48 hrs by LC-MS/MS analysis; type: ADME, organism-based; parameters: time < 48 hrs, dose 25 mg/kg, route ig; conditions: po
[16] = system: MGC-803; experiment: Induction of cell cycle arrest in human MGC-803 cells assessed as accumulation of cells at G2 phase at 10 uM incubated for 6 hrs by flow cytometry (reference value: 20.64 %); type: functional
[17] = system: PC-3; experiment: Induction of cell cycle arrest in human PC-3 cells assessed as accumulation of cells at G2 phase at 5 uM incubated for 48 hrs by flow cytometry (reference value: 22.59 %); type: functional
[18] = system: MGC-803; experiment: Induction of cell cycle arrest in human MGC-803 cells assessed as accumulation of cells at G2 phase at 10 uM incubated for 36 hrs by flow cytometry (reference value: 20.64 %); type: functional
[19] = system: PC-3; experiment: Antitumor activity against human PC-3 cells xenografted in NOD-SCID mouse model assessed as tumor growth inhibition at 25 mg/kg, IG administered once every 2 days for 21 days relative to control; type: functional; conditions: PC-3, po, 504 h, time 21 day, read-out: TGI
[20] = Solubility in cell culture medium by HPLC analysis; type: physicochemical
[21] = system: MGC-803; experiment: Induction of apoptosis in human MGC-803 cells assessed as necrotic cells at 10 uM incubated for 48 hrs by annexin V-FITC/PI staining based flow cytometry (reference value: 0.89 %); type: functional
[22] = system: PC-3; experiment: Induction of apoptosis in human PC-3 cells assessed as early apoptotic cells at 2.5 uM incubated for 48 hrs by annexin V-FITC/PI staining based flow cytometry (reference value: 0.85 %); type: functional
[23] = system: MGC-803; experiment: Induction of apoptosis in human MGC-803 cells assessed as early apoptotic cells at 5 uM incubated for 48 hrs by annexin V-FITC/PI staining based flow cytometry (reference value: 0.21 %); type: functional
[24] = system: PC-3; experiment: Induction of apoptosis in human PC-3 cells assessed as viable cells at 10 uM incubated for 48 hrs by annexin V-FITC/PI staining based flow cytometry (reference value: 98.6 %); type: functional; conditions: read-out: Activity
[25] = system: PC-3; experiment: Antitumor activity against human PC-3 cells assessed as cell growth inhibition incubated for 72 hrs by MTT assay; type: functional, cell-based; conditions: PC-3, 72 h

half-life [2]: 14.1 h
Vz [4]: 170.8 L/kg
CL/F [8]: 118 mL/min/kg
half-life [10]: 12.6 h
IC50 [14]: 8.1 µM
Cmax [15]: 176 ng/mL
solubility [20]: 3.26 µg/mL (≈ 8.01 µM)
IC50 [25]: 4.8 µM
SMILES: O=C(CCl)NC1CCN(c2cnc(-c3ccccc3)c(-c3ccccc3)n2)CC1
Activity [1]: 47.84%
Activity [3]: Active
Activity [5]: Tde
Activity [6]: 43.58%
inhibition [7]: Dose-Dependent Effect
Activity [9]: 13.2%
Activity [11]: 45.07%
Activity [12]: Non-Toxic
Activity [13]: Active
Activity [16]: 17.82%
Activity [17]: 16.41%
Activity [18]: 19.76%
inhibition in vivo at 25 mg/kg [19]: 71.9%
Activity [21]: 4.73%
Activity [22]: 0.96%
Activity [23]: 3.65%
viability at 10 µM [24]: 58.6%
